# From patent US12116358B2, “Substituted indoles and methods of use thereof” (EPIZYME, INC., priority 2018, dated 2024)
# What was measured:
# [1] = tested on: multiple myeloma cell lines (t(4;14) and non-t(4;14)); test: 14 day LTP assay in multiple myeloma cells; format: cell-based, human; conditions: FIG. 1 scatter graph
# [2] = tested on: KMS-11 tumor; test: Anti-tumor activity in human myeloma KMS-11 tumor-bearing NOD SCID mice (subcutaneous xenograft); format: in vivo
# From the text: Evaluation of the Anti-Tumor Activity of Cpd. […] Based on the tumor volume and body weight, mice were assigned to respective groups such that the average starting tumor size and body weight was the same for each treatment group. […] The tumor cells were routinely subcultured before confluence, not to exceed 4-5 passages. The cells growing in an exponential growth phase were harvested and counted for tumor inoculation. […] The treatment was started when the mean tumor size reached 118 mm^3. Mice were then assigned to groups such that the mean tumor volume was the same for each treatment group and time point. […] Tumor Measurements The measurement of tumor size was conducted twice weekly with a caliper and the tumor volume (mm3) is estimated using the formula: TV=a×b×b/2, where “a” and “b” are long and short diameters of a tumor, respectively. The TVs are used for calculation of the tumor growth inhibition and tumor growth delay. […] The “[…]” and “TVinitial” are the mean tumor volumes on the final day and initial day of dosing. After take down 5 mice of G2 G5 post the final dosing, the remaining mice were maintained for monitoring tumor outgrowth twice weekly. […] Animals showing obvious signs of severe distress and/or pain were humanely sacrificed by carbon dioxide followed by cervical dislocation to ensure death. Samples Collection Tumor samples and plasma were collect at the indicated day. Data Acquisition and Statistical Analysis Data Acquisition: Protocol-required measurements and observations were recorded manually on appropriate forms, or directly on a computerized database. Statistical Analysis: All statistical tests were conducted, and the level of significance was set at 5% or P<0.05. The group means, standard deviation were calculated for all measurement parameters as study designed. Two-way RM ANOVA followed by Tukeys post hoc comparisons of the means. The therapeutic effects of compound as a single agent in the KMS-11 subcutaneous xenograft model were evaluated.
# [3] = tested on: KMS-34 cells; test: 14 day KMS-34 long term proliferation (LTP) assay; conditions: KMS-34, t(4;14) multiple myeloma cell line; 14-day assay; FIG. 2
# Method: 14 Day KMS-34 Long Term Proliferation (LTP) Assay
# Incubate plates for 96 hrs.
# The final concentration is 1 μm.
# To calculate growth for days 4, 7, 11, and 14:
# 1. Calculate the split factor for day 4 to 7, day 7 to 11, and day 11-14 The split factor is the viable cells/mL on Day X (either 4, 7, or 11) divided by the density the cells are being split back to.
# 2. For growth of cells from day 4 to 7, multiply the day 7 viable cells/mL density by the split factor from day 4.
# 4. For growth of cells from Day 11 to 14, multiply the Day 14 viable cells/mL density by the days 4, 7, and 11 split factors.
# 5. Plot growth on semi-log chart (viable cells/mL on Y axis, in log, and days on X axis).
# From 5 mM to 0.25 μm. […] Mix well by pipetting up and down.
# [4] = G2, 31.25 mg/kg, p.o., BID × 28 days, PG-Day 25
smiles,measurement,setting,value
"CC(=O)N1CCN([C@H]2CCC[C@@H](NC(=O)c3cc4c(F)ccc(C)c4[nH]3)C2)CC1 [Cpd. No. 15, N-((1R,3S)-3-(4-acetylpiperazin-1-yl)cyclohexyl)-4-fluoro-7-methyl-1H-indole-2-carboxamide]",anti-proliferative effects in t(4;14) and non-t(4;14) multiple myeloma cell lines,[1],selective anti-proliferative effects
same,Tumor volume (Mean ± SEM),"[2]; G2, 31.25 mg/kg p.o. BID 28 days, PG-D1 (D 7)",119 ± 6 mm3
same,Tumor volume (Mean ± SEM),"[2]; G2, 31.25 mg/kg p.o. BID 28 days, PG-D4 (D 10)",225 ± 21 mm3
same,Tumor volume (Mean ± SEM),"[2]; G2, 31.25 mg/kg p.o. BID 28 days, PG-D7 (D 13)",271 ± 19 mm3
same,Tumor volume (Mean ± SEM),"[2]; G2, 31.25 mg/kg p.o. BID 28 days, PG-D11 (D 17)",408 ± 46 mm3
same,Tumor volume (Mean ± SEM),"[2]; G2, 31.25 mg/kg p.o. BID 28 days, PG-D14 (D 20)",478 ± 54 mm3
same,Tumor volume (Mean ± SEM),"[2]; G2, 31.25 mg/kg p.o. BID 28 days, PG-D18 (D 24)",609 ± 71 mm3
same,Tumor volume (Mean ± SEM),"[2]; G2, 31.25 mg/kg p.o. BID 28 days, PG-D21 (D 27)",686 ± 80 mm3
same,Tumor volume (Mean ± SEM),"[2]; G2, 31.25 mg/kg p.o. BID 28 days, PG-D25 (D 31)",763 ± 97 mm3
same,Tumor volume post the final dosing (Mean ± SEM),"[2]; G2, 31.25 mg/kg p.o. BID 28 days, PG-D28 (D 34)",882 ± 131 mm3
same,Tumor volume post the final dosing (Mean ± SEM),"[2]; G2, 31.25 mg/kg p.o. BID 28 days, PG-D32 (D 38)",1123 ± 149 mm3
same,Tumor volume post the final dosing (Mean ± SEM),"[2]; G2, 31.25 mg/kg p.o. BID 28 days, PG-D35 (D 41)",1499 ± 196 mm3
same,Tumor volume post the final dosing (Mean ± SEM),"[2]; G2, 31.25 mg/kg p.o. BID 28 days, PG-D39 (D 45)",1747 ± 243 mm3
same,Tumor Size at PG-Day 25 (Mean ± SEM),"[2]; G2, 31.25 mg/kg, p.o., BID × 28 days",763 ± 97 mm3
same,TGI,[2]; [4],74%
same,ΔT/ΔC,[2]; [4],26%
same,Tumor volume (Mean ± SEM),"[2]; G3, 62.5 mg/kg p.o. BID 28 days, PG-D1 (D 7)",117 ± 6 mm3
same,Tumor volume (Mean ± SEM),"[2]; G3, 62.5 mg/kg p.o. BID 28 days, PG-D4 (D 10)",178 ± 11 mm3
same,Tumor volume (Mean ± SEM),"[2]; G3, 62.5 mg/kg p.o. BID 28 days, PG-D7 (D 13)",216 ± 11 mm3
same,Tumor volume (Mean ± SEM),"[2]; G3, 62.5 mg/kg p.o. BID 28 days, PG-D11 (D 17)",231 ± 16 mm3
same,Tumor volume (Mean ± SEM),"[2]; G3, 62.5 mg/kg p.o. BID 28 days, PG-D14 (D 20)",184 ± 17 mm3
same,Tumor volume (Mean ± SEM),"[2]; G3, 62.5 mg/kg p.o. BID 28 days, PG-D18 (D 24)",176 ± 22 mm3
same,Tumor volume (Mean ± SEM),"[2]; G3, 62.5 mg/kg p.o. BID 28 days, PG-D21 (D 27)",129 ± 25 mm3
same,Tumor volume (Mean ± SEM),"[2]; G3, 62.5 mg/kg p.o. BID 28 days, PG-D25 (D 31)",115 ± 30 mm3
same,Tumor volume post the final dosing (Mean ± SEM),"[2]; G3, 62.5 mg/kg p.o. BID 28 days, PG-D28 (D 34)",117 ± 36 mm3
same,Tumor volume post the final dosing (Mean ± SEM),"[2]; G3, 62.5 mg/kg p.o. BID 28 days, PG-D32 (D 38)",65 ± 23 mm3
same,Tumor volume post the final dosing (Mean ± SEM),"[2]; G3, 62.5 mg/kg p.o. BID 28 days, PG-D35 (D 41)",150 ± 60 mm3
same,Tumor volume post the final dosing (Mean ± SEM),"[2]; G3, 62.5 mg/kg p.o. BID 28 days, PG-D39 (D 45)",309 ± 108 mm3
same,Tumor Size at PG-Day 25 (Mean ± SEM),"[2]; G3, 62.5 mg/kg, p.o., BID × 28 days",115 ± 30 mm3
same,ΔT/ΔC,"[2]; G3, 62.5 mg/kg, p.o., BID × 28 days, PG-Day 25",0%
same,Tumor volume (Mean ± SEM),"[2]; G4, 125 mg/kg p.o. BID 18 days then BID(3D− 4D+) 7 days, PG-D1 (D 7)",117 ± 6 mm3
same,Tumor volume (Mean ± SEM),"[2]; G4, 125 mg/kg p.o. BID 18 days then BID(3D− 4D+) 7 days, PG-D4 (D 10)",191 ± 11 mm3
same,Tumor volume (Mean ± SEM),"[2]; G4, 125 mg/kg p.o. BID 18 days then BID(3D− 4D+) 7 days, PG-D7 (D 13)",219 ± 9 mm3
same,Tumor volume (Mean ± SEM),"[2]; G4, 125 mg/kg p.o. BID 18 days then BID(3D− 4D+) 7 days, PG-D11 (D 17)",196 ± 11 mm3
same,Tumor volume (Mean ± SEM),"[2]; G4, 125 mg/kg p.o. BID 18 days then BID(3D− 4D+) 7 days, PG-D14 (D 20)",119 ± 10 mm3
same,Tumor volume (Mean ± SEM),"[2]; G4, 125 mg/kg p.o. BID 18 days then BID(3D− 4D+) 7 days, PG-D18 (D 24)",99 ± 16 mm3
same,Tumor volume (Mean ± SEM),"[2]; G4, 125 mg/kg p.o. BID 18 days then BID(3D− 4D+) 7 days, PG-D21 (D 27)",85 ± 20 mm3
same,Tumor volume (Mean ± SEM),"[2]; G4, 125 mg/kg p.o. BID 18 days then BID(3D− 4D+) 7 days, PG-D25 (D 31)",131 ± 39 mm3
same,Tumor volume post the final dosing (Mean ± SEM),"[2]; G4, 125 mg/kg p.o. BID 18 days then BID(3D− 4D+) 7 days, PG-D28 (D 34)",99 ± 20 mm3
same,Tumor volume post the final dosing (Mean ± SEM),"[2]; G4, 125 mg/kg p.o. BID 18 days then BID(3D− 4D+) 7 days, PG-D32 (D 38)",239 ± 68 mm3
same,Tumor volume post the final dosing (Mean ± SEM),"[2]; G4, 125 mg/kg p.o. BID 18 days then BID(3D− 4D+) 7 days, PG-D35 (D 41)",421 ± 108 mm3
same,Tumor volume post the final dosing (Mean ± SEM),"[2]; G4, 125 mg/kg p.o. BID 18 days then BID(3D− 4D+) 7 days, PG-D39 (D 45)",757 ± 215 mm3
same,Tumor Size at PG-Day 25 (Mean ± SEM),"[2]; G4, 125 mg/kg, p.o., BID × 18 days, BID(3D− 4D+) × 7 days",131 ± 39 mm3
same,ΔT/ΔC,"[2]; G4, 125 mg/kg, p.o., BID × 18 days, BID(3D− 4D+) × 7 days, PG-Day 25",1%
same,Tumor volume (Mean ± SEM),"[2]; G5, 175 mg/kg p.o. BID 11 days then BID(3D− 4D+) 14 days, PG-D1 (D 7)",119 ± 6 mm3
same,Tumor volume (Mean ± SEM),"[2]; G5, 175 mg/kg p.o. BID 11 days then BID(3D− 4D+) 14 days, PG-D4 (D 10)",192 ± 13 mm3
same,Tumor volume (Mean ± SEM),"[2]; G5, 175 mg/kg p.o. BID 11 days then BID(3D− 4D+) 14 days, PG-D7 (D 13)",221 ± 17 mm3
same,Tumor volume (Mean ± SEM),"[2]; G5, 175 mg/kg p.o. BID 11 days then BID(3D− 4D+) 14 days, PG-D11 (D 17)",199 ± 24 mm3
same,Tumor volume (Mean ± SEM),"[2]; G5, 175 mg/kg p.o. BID 11 days then BID(3D− 4D+) 14 days, PG-D14 (D 20)",167 ± 27 mm3
same,Tumor volume (Mean ± SEM),"[2]; G5, 175 mg/kg p.o. BID 11 days then BID(3D− 4D+) 14 days, PG-D18 (D 24)",189 ± 32 mm3
same,Tumor volume (Mean ± SEM),"[2]; G5, 175 mg/kg p.o. BID 11 days then BID(3D− 4D+) 14 days, PG-D21 (D 27)",214 ± 45 mm3
same,Tumor volume (Mean ± SEM),"[2]; G5, 175 mg/kg p.o. BID 11 days then BID(3D− 4D+) 14 days, PG-D25 (D 31)",225 ± 45 mm3
same,Tumor volume post the final dosing (Mean ± SEM),"[2]; G5, 175 mg/kg p.o. BID 11 days then BID(3D− 4D+) 14 days, PG-D28 (D 34)",269 ± 146 mm3
same,Tumor volume post the final dosing (Mean ± SEM),"[2]; G5, 175 mg/kg p.o. BID 11 days then BID(3D− 4D+) 14 days, PG-D32 (D 38)",589 ± 378 mm3
same,Tumor volume post the final dosing (Mean ± SEM),"[2]; G5, 175 mg/kg p.o. BID 11 days then BID(3D− 4D+) 14 days, PG-D35 (D 41)",732 ± 422 mm3
same,Tumor volume post the final dosing (Mean ± SEM),"[2]; G5, 175 mg/kg p.o. BID 11 days then BID(3D− 4D+) 14 days, PG-D39 (D 45)",1183 ± 686 mm3
same,Tumor Size at PG-Day 25 (Mean ± SEM),"[2]; G5, 175 mg/kg, p.o., BID × 18 days, BID(3D− 4D+) × 14 days",225 ± 45 mm3
same,ΔT/ΔC,"[2]; G5, 175 mg/kg, p.o., BID × 18 days, BID(3D− 4D+) × 14 days, PG-Day 25",4%
same,type of response of KMS-34 cells,[3],cytotoxic response
